The test system of assay [1] is experimental amnesia caused in rats by scopolamine. The experiment in a line: Preventive effect against experimental amnesia caused in rats by scopolamine (passive avoidance learning, intraperitoneal administration). It counts as in vivo, Wister male rats. The note with it: 1 mg/kg i.p.; for No. of amnesic rats/No. of rats tested / percentage amnesia / Avoidance time 24 hrs. later / Avoidance time 48 hrs. later: scopolamine 3 mg/kg i.p. after learning; for preventive effect against scopolamine amnesia (in words): rats. On the procedure:
Several of the anti-prolyl endopeptidase compounds of the present invention were checked for their ability to prevent the inhibition of long-term memory fixation by scopolamine. Solutions of physiological saline that contained selected compounds of the present inventions in an amount of 1 mg/kg were administered intraperitoneally to Wister male rats (100-120 g). One hour after the administration, electric shocks were applied to the rats so that they would acquire passive avoidance learning. Immediately thereafter, scopolamine was administered intraperitoneally to each rat in an amount of 3 mg per kg of body weight.
The result of the test was assessed both 24 hours and 48 hours after the administration of scopolamine. The number of amnesic rats and of sound rats was counted for both the control group (rats which were not given the test compounds but to which scopolamine and physiological saline alone were administered intraperitoneally) and the treated group (rats to which both the test compound and scopolamine were administered).

Another assay has as its target prolyl endopeptidase (Elizabethkingia meningoseptica, UniProt P27028). The experiment in a line: Measurement of anti-prolyl endopeptidase activity. It counts as biochemical. The note with it: substrate Z-glycyl-proline-β-naphthylamide, 0.1M phosphate buffer pH 7.06, absorbance at 410 nm. The protocol:
The method of Yoshimoto and Tsuru (T. Yoshimoto and D. Tsuru, Agr. Biol. Chem. 42, 2417, 1978) was used to measure the anti-prolyl endopeptidase activities of compounds of the present invention. A mixture of 0.0025M Z-glycyl-proline-β-naphthylamide (0.25 ml), 0.1M phosphate buffer (pH, 7.06; 0.99 ml) and a solution of a particular anti-prolyl endopeptidase compound (0.01 ml) was incubated in a test tube at 37° C. for 3 minutes. Thereafter, 0.1 ml of a solution of prolyl endopeptidase (0.2 U/ml) was added and the mixture was heated at 35° C. for 10 minutes. After the reaction, 2.0 ml of Triton X-100 in 1M acetate buffer (pH, 4.0) was added to the reaction mixture until the final concentration of the surfactant was 10%. The mixture was left at room temperature for 15 minutes and the absorbance (a) at 410 nm was measured.
A sample for a blind test was prepared by using the buffer instead of the anti-prolyl endopeptidase compound and its absorbance (b) was also measured. The percent inhibition of prolyl endopeptidase was calculated by the formula: ((b-a)/b)×100, and the amount of a specific compound to achieve 50% inhibition IC50) was determined.

35 molecules from patent US4701465A, “N-acylpyrrolidine derivative and synthesis and use thereof” (Suntory Limited, priority 1985, dated 1987) can be followed below.

prolyl endopeptidase, sequence (P27028 21-705): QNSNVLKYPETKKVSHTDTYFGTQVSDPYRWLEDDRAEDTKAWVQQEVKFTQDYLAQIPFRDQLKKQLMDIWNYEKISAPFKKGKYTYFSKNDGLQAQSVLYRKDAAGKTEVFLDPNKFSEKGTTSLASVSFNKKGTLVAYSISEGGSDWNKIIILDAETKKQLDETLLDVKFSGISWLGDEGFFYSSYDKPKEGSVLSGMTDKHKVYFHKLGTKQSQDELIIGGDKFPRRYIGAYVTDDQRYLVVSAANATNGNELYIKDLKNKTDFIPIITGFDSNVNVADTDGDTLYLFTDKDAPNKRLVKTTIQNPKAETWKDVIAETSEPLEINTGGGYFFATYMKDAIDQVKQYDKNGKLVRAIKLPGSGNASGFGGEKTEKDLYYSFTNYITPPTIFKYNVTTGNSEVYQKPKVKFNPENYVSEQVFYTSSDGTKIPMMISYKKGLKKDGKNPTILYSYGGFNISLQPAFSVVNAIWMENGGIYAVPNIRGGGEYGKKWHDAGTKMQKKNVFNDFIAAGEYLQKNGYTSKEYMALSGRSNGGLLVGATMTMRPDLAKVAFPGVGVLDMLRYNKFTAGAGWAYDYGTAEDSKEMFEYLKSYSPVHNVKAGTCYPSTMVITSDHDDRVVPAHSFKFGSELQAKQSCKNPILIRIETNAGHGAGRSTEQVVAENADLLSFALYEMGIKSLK

On to `CCC(C(=O)N1CCCC1C=O)c1ccccc1` (centres unmarked) [SUAM1066], for which, in assay [1], the “No. of amnesic rats/No. of rats tested” value is 3/10, the percentage amnesia is recorded as 30%, the “Avoidance time 24 hrs. later” value stood at 268.4 s and the “Avoidance time 48 hrs. later” value came to 205.4 s.

With `COC(=O)C1CCCN1C(=O)CCCc1ccc(Cl)cc1` (centres unmarked) [compound 12], on prolyl endopeptidase, the “IC50 (amount of compound to achieve 50% inhibition of prolyl endopeptidase)” value was 50 μg/test tube.

For `O=CC1CCCN1C(=O)Cc1ccc(Cl)cc1` (centres unmarked) [SUAM1052], in assay [1], the “No. of amnesic rats/No. of rats tested” value was 3/10, the percentage amnesia came out at 30%, the “Avoidance time 24 hrs. later” value amounted to 223.1 s and the “Avoidance time 48 hrs. later” value stood at 214.8 s.

With `COc1ccc(CCCC(=O)N2CCCC2C=O)cc1` (centres unmarked) [SUAM1051], in assay [1], the “preventive effect against scopolamine amnesia (in words)” value (from here on “preventive effect”) was “particularly remarkable effects”, the “No. of amnesic rats/No. of rats tested” value is reported as 0/10, the percentage amnesia is 0% and the “Avoidance time 24 hrs. later” value worked out at 300.0 s. In addition, the “Avoidance time 48 hrs. later” value in assay [1] stood at 300.0 s.

With `COc1ccc(/C=C/C(=O)N2CCCC2C=O)cc1` (centres unmarked) [SUAM1054], in assay [1], the “No. of amnesic rats/No. of rats tested” value was 5/10, the percentage amnesia is reported as 50%, the “Avoidance time 24 hrs. later” value came to 204.5 s and the “Avoidance time 48 hrs. later” value was found to be 199.7 s.

For the molecule `COC(=O)C1CCCN1C(=O)CCc1ccc(Cl)cc1` (centres unmarked) [compound 11], the “IC50 (amount of compound to achieve 50% inhibition of prolyl endopeptidase)” value against prolyl endopeptidase amounted to 30 μg/test tube.

Turning to `CCC(C(=O)N1CCCC1C=O)c1ccccc1` (centres unmarked) [compound 27], on prolyl endopeptidase, the “IC50 (amount of compound to achieve 50% inhibition of prolyl endopeptidase)” value is 0.2 μg/test tube.

`COc1ccc(CC(=O)N2CCCC2C=O)cc1` (centres unmarked) [compound 7]: the “IC50 (amount of compound to achieve 50% inhibition of prolyl endopeptidase)” value at prolyl endopeptidase is given as 3.0 μg/test tube.

Turning to `COc1ccc(/C=C/C(=O)N2CCCC2C=O)cc1` (centres unmarked) [compound 39], the “IC50 (amount of compound to achieve 50% inhibition of prolyl endopeptidase)” value at prolyl endopeptidase came to 0.2 μg/test tube.

`COC(=O)[C@@H]1CCCN1C(=O)CCOc1ccccc1` [Compound No. 19, N-(3-phenoxy)propionyl-proline methyl ester]: on prolyl endopeptidase, the “IC50 (amount of compound to achieve 50% inhibition of prolyl endopeptidase)” value is on record as 60 μg/test tube.

On to `COc1ccc(CCC(=O)N2CCCC2C=O)cc1` (centres unmarked) [compound 8], for which, at prolyl endopeptidase, the “IC50 (amount of compound to achieve 50% inhibition of prolyl endopeptidase)” value turned out to be 1.0 μg/test tube.

Take `O=CC1CCCN1C(=O)CCc1ccc(Cl)cc1` (centres unmarked) [compound 17]: the “IC50 (amount of compound to achieve 50% inhibition of prolyl endopeptidase)” value against prolyl endopeptidase came to 1.0 μg/test tube.

For the molecule `COC(=O)C1CCCN1C(=O)Cc1ccc(OC)cc1` (centres unmarked) [Compound No. 1], the “IC50 (amount of compound to achieve 50% inhibition of prolyl endopeptidase)” value at prolyl endopeptidase stood at 80 μg/test tube.

In the case of `O=CC1CCCN1C(=O)CC(c1ccccc1)c1ccccc1` (centres unmarked) [compound 24], the “IC50 (amount of compound to achieve 50% inhibition of prolyl endopeptidase)” value against prolyl endopeptidase turned out to be 0.1 μg/test tube.

In the case of `O=CC1CCCN1C(=O)CC(c1ccccc1)c1ccccc1` (centres unmarked) [SUAM1065], in assay [1], the “preventive effect” value is on record as “particularly remarkable effects”, the “No. of amnesic rats/No. of rats tested” value is listed as 1/10, the percentage amnesia came to 10% and the “Avoidance time 24 hrs. later” value worked out at 284.6 s. In addition, the “Avoidance time 48 hrs. later” value in assay [1] stood at 267.2 s.

As to `CC(CCc1ccccc1)C(=O)N1CCCC1C=O` (centres unmarked) [compound 36], on prolyl endopeptidase, the “IC50 (amount of compound to achieve 50% inhibition of prolyl endopeptidase)” value is on record as 1.0 μg/test tube.

Take `COc1ccc(CCCC(=O)N2CCCC2C=O)cc1` (centres unmarked) [compound 9]: the “IC50 (amount of compound to achieve 50% inhibition of prolyl endopeptidase)” value at prolyl endopeptidase was 0.05 μg/test tube.

With `O=CC1CCCN1C(=O)Cc1ccc(Cl)cc1` (centres unmarked) [compound 16], the “IC50 (amount of compound to achieve 50% inhibition of prolyl endopeptidase)” value on prolyl endopeptidase is 0.5 μg/test tube.

With `O=CC1CCCN1C(=O)CCC(c1ccccc1)c1ccccc1` (centres unmarked) [SUAM1090], in assay [1], the “No. of amnesic rats/No. of rats tested” value was 4/10, the percentage amnesia came to 40%, the “Avoidance time 24 hrs. later” value amounted to 232.8 s and the “Avoidance time 48 hrs. later” value was 202.36 s.

Turning to `CC(C)C(CCc1ccccc1)C(=O)N1CCCC1C=O` (centres unmarked) [compound 33], the “IC50 (amount of compound to achieve 50% inhibition of prolyl endopeptidase)” value against prolyl endopeptidase is on record as > 5 μg/test tube.

Regarding `COC(=O)C1CCCN1C(=O)C(CCc1ccccc1)C(C)C` (centres unmarked) [compound 31], the “IC50 (amount of compound to achieve 50% inhibition of prolyl endopeptidase)” value against prolyl endopeptidase is listed as > 200 μg/test tube.

Consider `O=CC1CCCN1C(=O)CCOc1ccccc1` (centres unmarked) [Compound No. 21, N-(3-phenoxy)propionyl-prolinal], for which, at prolyl endopeptidase, the “IC50 (amount of compound to achieve 50% inhibition of prolyl endopeptidase)” value amounted to 2.5 μg/test tube.

For `COc1ccc(CCC(=O)N2CCCC2C=O)cc1` (centres unmarked) [SUAM1050], in assay [1], the “No. of amnesic rats/No. of rats tested” value is 5/10, the percentage amnesia amounted to 50%, the “Avoidance time 24 hrs. later” value is 198.2 s and the “Avoidance time 48 hrs. later” value was 203.5 s.

For `O=CC1CCCN1C(=O)CCC(c1ccccc1)c1ccccc1` (centres unmarked) [compound 42], the “IC50 (amount of compound to achieve 50% inhibition of prolyl endopeptidase)” value against prolyl endopeptidase is reported as 0.35 μg/test tube.

Turning to `COC(=O)C1CCCN1C(=O)/C=C/c1ccc(OC)cc1` (centres unmarked) [compound 37], the “IC50 (amount of compound to achieve 50% inhibition of prolyl endopeptidase)” value on prolyl endopeptidase is 80 μg/test tube.

As for `O=CC1CCCN1C(=O)CCC(=O)c1ccccc1` (centres unmarked) [SUAM1055], in assay [1], the “preventive effect” value was “particularly remarkable effects”, the “No. of amnesic rats/No. of rats tested” value is given as 0/10, the percentage amnesia was determined as 0% and the “Avoidance time 24 hrs. later” value turned out to be 300.0 s. In assay [1], the “Avoidance time 48 hrs. later” value was 300.0 s.

Take `COC(=O)C1CCCN1C(=O)Cc1ccc(Cl)cc1` (centres unmarked) [compound 10]: the “IC50 (amount of compound to achieve 50% inhibition of prolyl endopeptidase)” value against prolyl endopeptidase is 72 μg/test tube.

Take `O=CC1CCCN1C(=O)CCC(=O)c1ccccc1` (centres unmarked) [compound 30]: the “IC50 (amount of compound to achieve 50% inhibition of prolyl endopeptidase)” value against prolyl endopeptidase came out at 0.1 μg/test tube.

As to `COC(=O)C1CCCN1C(=O)CCc1ccc(OC)cc1` (centres unmarked) [Compound No. 2], the “IC50 (amount of compound to achieve 50% inhibition of prolyl endopeptidase)” value against prolyl endopeptidase is on record as 51 μg/test tube.

For the molecule `COC(=O)C1CCCN1C(=O)CCCc1ccc(OC)cc1` (centres unmarked) [compound 3], the “IC50 (amount of compound to achieve 50% inhibition of prolyl endopeptidase)” value at prolyl endopeptidase turned out to be 180 μg/test tube.

As to `COC(=O)C1CCCN1C(=O)CCC(=O)c1ccccc1` (centres unmarked) [compound 28], at prolyl endopeptidase, the “IC50 (amount of compound to achieve 50% inhibition of prolyl endopeptidase)” value is given as 200 μg/test tube.

Turning to `COC(=O)C1CCCN1C(=O)C(C)CCc1ccccc1` (centres unmarked) [compound 34], on prolyl endopeptidase, the “IC50 (amount of compound to achieve 50% inhibition of prolyl endopeptidase)” value was 80 μg/test tube.

With `COC(=O)C1CCCN1C(=O)CC(c1ccccc1)c1ccccc1` (centres unmarked) [compound 22], the “IC50 (amount of compound to achieve 50% inhibition of prolyl endopeptidase)” value against prolyl endopeptidase is reported as 250 μg/test tube.

`O=CC1CCCN1C(=O)CCCc1ccc(Cl)cc1` (centres unmarked) [compound 18]: the “IC50 (amount of compound to achieve 50% inhibition of prolyl endopeptidase)” value against prolyl endopeptidase is 1.5 μg/test tube.

On to `CCC(C(=O)N1CCCC1C(=O)OC)c1ccccc1` (centres unmarked) [compound 25], for which, on prolyl endopeptidase, the “IC50 (amount of compound to achieve 50% inhibition of prolyl endopeptidase)” value is reported as 510 μg/test tube.
